{
  "source": "patent US20050170004A1",
  "about": "“Nanoparticles for drug delivery” (priority 2003, published 2005)",
  "key": {"pancreatin": {"tested_on": "pancreatin", "experiment": "Protection from enzymatic degradation by pancreatin", "type": "in vitro ADME", "conditions": "pancreatin:GA 1:10, 37° C., phosphate buffer pH 6.8", "experimental": "The enzymatic degradation of free GA in solution versus GA in the nano suspension (˜50% bound to the nanoparticles) and versus GA bound to the nanoparticles (˜100% bound) was studied using pancreatin. The GA bound to the nanoparticles was prepared by collecting fractions from the void volume of the Sephadex column as described in Example 1 and pooling the samples. Pancreatin is a mixture of pancreatic proteases consisting of trypsin and chymotrypsins.\nPancreatin 3.5 mg was dissolved in 10 ml of 0.05M phosphate buffer pH=6.8. Free GA, GA in nano suspension, or fully bound GA, 35 mg as GA, was dissolved or suspended in 10 ml of 0.05M phosphate buffer pH=6.8. 1 ml of the pancreatin solution and 1 ml of the GA solution or suspension were mixed (the ratio of pancreatin to GA was fixed at 1:10) and held at 37° C. At fixed time points the enzymatic reaction was stopped by adding 0.4 ml of 1N HCl. The residual GA content of the mixture was determined by the HPLC method described in Example 1."}, "[1]": {"tested_on": "EAE in the Lewis rat model", "experiment": "Efficacy in rat experimental autoimmune encephalomyelitis (EAE)", "type": "in vivo", "conditions": "for % of inhibition vs. DDW: inhibition of group mean score", "description": "In this experiment the goal was to reduce experimental autoimmune encephalomyelitis (EAE) induced clinical signs in the Lewis rat model. Lewis (LEW) rats are highly susceptible to EAE induced with guinea pig spinal cord homogenate (GPSCH) emulsified in modified complete Freund's adjuvant (CFA). […] Decreased signs of EAE in rats with test materials administered orally during the study is considered a protective effect set forth by the experimental design.\nThe animal were induced with the disease by subcutaneous injection of GPSCH emulsion into both hind paws on day 1.\nInitiation of scoring of rats for EAE clinical signs started on day 9. The treatment groups were blinded to the scorer. The treatments or control treatments were started on day 1 and administered daily to day 22. Treatments were administered by oral gavage at a dose and frequency described in Table 2.\nThere were ten rats in each group.\nThe animals were accessed daily for EAE clinical signs as described in Table 3.\nThe number of sick animals in each group were assessed. The day of onset of the symptoms, the duration of days of the symptoms and the number of animals dying were noted and the percentages calculated.\nThe maximal scores of each of the animals in each group were summed. The mean maximal score of the group was calculated as follows: […]\nΣ Maximal score of each rat/number of rats in the group.\nThe scores of each of the animals in the group were summed and the mean score per day was calculated. The group mean score was calculated as follows: • Σ Total score of each rat per day/number of rats in the group. Results"}, "spleen cells of mice": {"tested_on": "spleen cells of mice", "experiment": "Immunologic activity ex-vivo in mice: cytokine secretion from splenocytes activated with GA RS (ELISA)", "conditions": "mice fed daily 250 μg GA equivalent; throughout the test period", "experimental": "The ability of GA-Wax-PVP to elicit an immune response with a similar cytokine pattern as glatiramer acetate solution was tested in an ex-vivo model in mice. The study was conducted over a period of 10 days. Mice were fed daily with GA reference standard (GA RS, 250 μg), GA-Wax-PVP (amount equivalent to 250 μg GA) or Wax-PVP as negative control (similar volume and weight of particles as GA-Wax-PVP). During the study period, subsets of animals in each treatment group were sacrificed on days 3, 6 and 10. Spleens were excised and primary cell cultures were prepared. The effect of the treatment was tested by in-vitro activation of splenocytes with GA RS. The response of the cells to the challenge is a measure of previous exposure to GA. Comparing the immune response of the mice fed GA-Wax-PVP to those fed GA RS gives a measure of the relative exposure to GA that each treatment provided. T-cell response was monitored by detection of cytokines secreted from activated cells by ELISA analysis. The levels of IL-2, TGF-β, IL-4, IL-5, IL-10 and IFN-γ were examined."}, "multiple sclerosis": {"tested_on": "multiple sclerosis", "conditions": "cited from earlier work"}, "[2]": {"conditions": "daily oral gavage day 1-22, 2.5 mg GA/ml, 5 ml/kg"}},
  "data": [
    {"substance": "Glatiramer acetate [GA]", "values": [
      {"measurement": "percent residual GA", "setting": "pancreatin; 0 min", "value": "100.0 +/− 0.0%"},
      {"measurement": "percent residual GA", "setting": "pancreatin; 1 min", "value": "75.1 +/− 3.9%"},
      {"measurement": "percent residual GA", "setting": "pancreatin; 2 min", "value": "63.4 +/− 4.8%"},
      {"measurement": "percent residual GA", "setting": "pancreatin; 3 min, listed as Free GA, 3 min", "value": "56.3 +/− 4.7%"},
      {"measurement": "percent residual GA", "setting": "pancreatin; 3 min, listed as free GA", "value": 56, "unit": "%"},
      {"measurement": "percent residual GA", "setting": "pancreatin; 6 min", "value": "47.1 +/− 4.4%"},
      {"measurement": "Group Mean Score", "setting": "[1]; EAE clinical score 0-6", "value": "0.67 ± 0.4"},
      {"measurement": "Mean Maximal Score", "setting": "[1]; EAE clinical score 0-6", "value": "2.2 ± 1.1"},
      {"measurement": "Incidence %", "setting": "[1]; [2]", "value": 89, "unit": "%"},
      {"measurement": "Incidence Total N", "setting": "[1]; [2]", "value": "8/9"},
      {"measurement": "Mean Disease Duration", "setting": "[1]; [2]", "value": "3.2 ± 1.6", "unit": "days"},
      {"measurement": "Mean Onset", "setting": "[1]; [2]", "value": "13.0 ± 2.5", "unit": "days"},
      {"measurement": "Mortality %", "setting": "[1]; [2]", "value": 0, "unit": "%"},
      {"measurement": "Mortality Total N", "setting": "[1]; [2]", "value": "0/10"},
      {"measurement": "Incidence Total N", "setting": "[1]; daily oral gavage day 1-22, 2.5 mg GA/ml, 5 ml/kg, listed as Glatiramer acetate oral solution", "value": "eight of nine"},
      {"measurement": "Daily Mean Score", "setting": "[1]; day 9, EAE clinical score 0-6", "value": 0.0},
      {"measurement": "Daily Mean Score", "setting": "[1]; day 10, EAE clinical score 0-6", "value": 0.0},
      {"measurement": "Daily Mean Score", "setting": "[1]; day 11, EAE clinical score 0-6", "value": 0.2},
      {"measurement": "Daily Mean Score", "setting": "[1]; day 12, EAE clinical score 0-6", "value": 1.3},
      {"measurement": "Daily Mean Score", "setting": "[1]; day 13, EAE clinical score 0-6", "value": 2.0},
      {"measurement": "Daily Mean Score", "setting": "[1]; day 14, EAE clinical score 0-6", "value": 1.8},
      {"measurement": "Daily Mean Score", "setting": "[1]; day 15, EAE clinical score 0-6", "value": 1.2},
      {"measurement": "Daily Mean Score", "setting": "[1]; day 16, EAE clinical score 0-6", "value": 0.1},
      {"measurement": "Daily Mean Score", "setting": "[1]; day 17, EAE clinical score 0-6", "value": 0.0},
      {"measurement": "Daily Mean Score", "setting": "[1]; day 18, EAE clinical score 0-6", "value": 0.0},
      {"measurement": "AUC of daily mean score", "setting": "[1]; days 9-18", "value": 6.6},
      {"measurement": "% of inhibition vs. DDW", "setting": "[1]", "value": 38, "unit": "%"},
      {"measurement": "% of inhibition vs. DDW", "setting": "[1]; listed as glatiramer acetate oral solution", "value": 38, "unit": "%"},
      {"measurement": "effect on disease severity of EAE (conclusion)", "setting": "[1]; oral administration, in words", "value": "inhibit the disease severity of EAE in rats"},
      {"measurement": "levels of all the cytokines examined (IL-2, TGF-β, IL-4, IL-5, IL-10, IFN-γ)", "setting": "spleen cells of mice", "value": "similar"},
      {"measurement": "clinical benefits for MS patients", "setting": "multiple sclerosis; 20 mg subcutaneous daily injection", "value": "extended clinical benefits"},
      {"measurement": "burden of disease lesions in magnetic resonance imaging measures", "setting": "multiple sclerosis; literature review", "value": "significantly reduce"},
      {"measurement": "relapse rate of multiple sclerosis", "setting": "multiple sclerosis; literature review", "value": "significantly reduce"}
    ]}
  ]
}
